According to ChEMBL document CHEMBL6103539, “A critical analysis of design, binding pattern and SAR of benzo-fused heteronuclear compounds as VEGFR-2 inhibitors” (Bioorg Med Chem, 2024):
Converted amounts (≈) assume the structure as drawn.

Columns and labels:
MCF7 [1] = experiment: Antiproliferative activity against human MCF7 cells assessed as cell growth inhibition measured for 24 hrs by MTT assay; assay type: functional, cell-based; details: MCF7, 24 h
HepG2 [2] = experiment: Antiproliferative activity against human HepG2 cells assessed as cell growth inhibition measured for 24 hrs by MTT assay; assay type: functional, cell-based; details: HepG2, 24 h
HCT-116 [3] = experiment: Antiproliferative activity against human HCT-116 cells assessed as cell growth inhibition measured for 24 hrs by MTT assay; assay type: functional, cell-based; details: HCT-116, 24 h
MCF7 [4] = experiment: Antiproliferative activity against human MCF7 cells; assay type: functional, cell-based
DU-145 = experiment: Antiproliferative activity against human DU-145 cells; assay type: functional, cell-based
HepG2 [5] = experiment: Anticancer activity against human HepG2 cells assessed as reduction in cell viability measured after 72 hrs by MTT assay; assay type: functional, cell-based; details: HepG2, 72 h
MCF7 [6] = experiment: Cytotoxicity against human MCF7 cells assessed as reduction in cell viability incubated for 48 hrs by MTT assay; assay type: functional, cell-based; details: MCF7, 48 h
[7] = molecular target: T1, Vascular endothelial growth factor receptor 2 (Homo sapiens, UniProt P35968); experiment: Inhibition of human VEGFR-2 by ELISA method
T1 sequence (P35968 whole entry): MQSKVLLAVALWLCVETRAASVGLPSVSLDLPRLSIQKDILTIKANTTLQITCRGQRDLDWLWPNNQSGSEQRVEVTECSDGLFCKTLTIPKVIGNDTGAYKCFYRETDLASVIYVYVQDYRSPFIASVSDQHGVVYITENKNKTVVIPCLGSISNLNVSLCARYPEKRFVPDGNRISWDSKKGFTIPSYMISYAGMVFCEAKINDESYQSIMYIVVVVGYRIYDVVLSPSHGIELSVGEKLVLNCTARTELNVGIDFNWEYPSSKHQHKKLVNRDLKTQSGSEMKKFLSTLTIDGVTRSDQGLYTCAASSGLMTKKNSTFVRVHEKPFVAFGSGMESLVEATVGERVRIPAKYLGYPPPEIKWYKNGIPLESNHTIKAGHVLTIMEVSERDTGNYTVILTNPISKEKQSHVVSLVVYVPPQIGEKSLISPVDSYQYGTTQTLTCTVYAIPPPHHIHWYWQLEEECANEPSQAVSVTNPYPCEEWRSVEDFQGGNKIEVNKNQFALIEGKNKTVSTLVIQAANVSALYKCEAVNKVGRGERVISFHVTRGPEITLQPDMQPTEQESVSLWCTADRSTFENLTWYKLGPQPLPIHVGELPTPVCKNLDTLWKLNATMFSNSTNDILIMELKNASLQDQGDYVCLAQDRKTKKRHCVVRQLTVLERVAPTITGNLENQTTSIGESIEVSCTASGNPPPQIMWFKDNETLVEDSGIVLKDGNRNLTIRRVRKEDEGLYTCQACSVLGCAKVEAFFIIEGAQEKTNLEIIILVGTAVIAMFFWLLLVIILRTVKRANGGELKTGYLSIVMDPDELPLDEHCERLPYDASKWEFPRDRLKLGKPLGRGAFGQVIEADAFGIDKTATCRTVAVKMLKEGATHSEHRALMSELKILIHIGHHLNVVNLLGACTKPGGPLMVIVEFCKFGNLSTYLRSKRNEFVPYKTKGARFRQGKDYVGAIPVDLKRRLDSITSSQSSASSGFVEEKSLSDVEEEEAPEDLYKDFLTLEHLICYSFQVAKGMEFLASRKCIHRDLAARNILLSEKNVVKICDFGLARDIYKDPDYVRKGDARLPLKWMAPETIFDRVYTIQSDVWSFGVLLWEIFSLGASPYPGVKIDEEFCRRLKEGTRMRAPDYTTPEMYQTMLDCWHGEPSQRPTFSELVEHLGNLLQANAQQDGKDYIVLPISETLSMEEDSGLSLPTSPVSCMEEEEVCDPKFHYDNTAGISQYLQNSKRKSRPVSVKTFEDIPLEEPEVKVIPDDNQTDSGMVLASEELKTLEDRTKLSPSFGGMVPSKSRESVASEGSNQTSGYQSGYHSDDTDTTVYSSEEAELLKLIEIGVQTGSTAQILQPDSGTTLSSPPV

[8] = molecular target: T1, Vascular endothelial growth factor receptor 2; experiment: Inhibition of VEGFR-2 in human MCF7 cells by ELISA method; assay type: cell-based
HepG2 [9] = experiment: cells; details: Homo sapiens, HepG2, 72 h
Description: Cytotoxicity against human HepG2 cells assessed as reduction in cell viability incubated for 72 hrs by MTT assay

HCT-116 [10] = experiment: cells; details: Homo sapiens, HCT-116, 72 h
Description: Cytotoxicity against human HCT-116 cells assessed as reduction in cell viability incubated for 72 hrs by MTT assay

MCF7 [11] = experiment: cells; details: Homo sapiens, MCF7, 72 h
Description: Cytotoxicity against human MCF7 cells assessed as reduction in cell viability incubated for 72 hrs by MTT assay

UO-31 = experiment: Antiproliferative activity against human UO-31 cells assessed as reduction in cell viability incubated for 48 hrs by MTT assay; assay type: functional, cell-based; details: UO-31, 48 h
SK-MEL-2 = experiment: Inhibition of cell proliferation in human SK-MEL-2 cells at 0.3 uM relative to control; assay type: functional
NCI-H522 = experiment: Inhibition of cell proliferation in human NCI-H522 cells at 0.3 uM relative to control; assay type: functional
MCF7 [12] = experiment: Growth inhibition of human MCF7 cells; assay type: functional
MCF7 [13] = experiment: Cytotoxicity against human MCF7 cells assessed as reduction in cell viability incubated for 48 hrs by SRB assay; assay type: functional, cell-based; details: MCF7, 48 h
[14] = molecular target: T1, Vascular endothelial growth factor receptor 2; experiment: Inhibition of VEGFR2 in human MCF7 cells by horseradish peroxidase-coupled TMB substrate based ELISA; assay type: cell-based
HCT-116 [15] = experiment: Antiproliferative activity against human HCT-116 cells assessed as reduction in cell viability incubated for 48 hrs by MTT assay; assay type: functional, cell-based; details: HCT-116, 48 h
A549 [16] = experiment: Antiproliferative activity against human A549 cells assessed as reduction in cell viability incubated for 48 hrs by MTT assay; assay type: functional, cell-based; details: A549, 48 h
A549 [17] = experiment: Cytotoxicity against human A549 cells assessed as reduction in cell growth incubated for 24 hrs by MTT assay; assay type: functional, cell-based; details: A549, 24 h
NCI-H460 = experiment: Cytotoxicity against human NCI-H460 cells assessed as reduction in cell growth incubated for 24 hrs by MTT assay; assay type: functional, cell-based; details: NCI-H460, 24 h
[18] = molecular target: T1, Vascular endothelial growth factor receptor 2; experiment: Inhibition of GST-tagged human recombinant VEGFR2 at 10 uM using Poly(4:1 Glu, Tyr) as substrate by Kinase-Glo Max reagent based luminescence analysis relative to control
[19] = molecular target: T1, Vascular endothelial growth factor receptor 2; experiment: Inhibition of VEGFR2 (unknown origin) using poly (Glu,Tyr) 4:1 as substrate measured after 1 hr in presence of ATP by ELISA method
[20] = molecular target: T1, Vascular endothelial growth factor receptor 2; experiment: Inhibition of VEGFR-2 (unknown origin) at 1 uM by ELISA method relative to control
HeLa = experiment: Cytotoxicity against human HeLa cells assessed as reduction in cell viability incubated for 72 hrs by CCK-8 assay; assay type: functional, cell-based
HT-29 = experiment: Cytotoxicity against human HT-29 cells assessed as reduction in cell viability incubated for 72 hrs by CCK-8 assay; assay type: functional, cell-based; details: HT-29, 72 h
[21] = Cytotoxicity against human HUVEC cells assessed as reduction in cell viability incubated for 72 hrs by CCK-8 assay; assay type: toxicity, cell-based
[22] = Cytotoxicity against human A549 cells assessed as reduction in cell viability incubated for 72 hrs by CCK-8 assay; assay type: toxicity, cell-based
[23] = Cytotoxicity against human MDA-MB-435 cells assessed as reduction in cell viability incubated for 72 hrs by CCK-8 assay; assay type: toxicity, cell-based
HepG2 [24] = experiment: Cytotoxicity against human HepG2 cells assessed as reduction in cell growth by MTT assay; assay type: functional, cell-based
HCT-116 [25] = experiment: Cytotoxicity against human HCT-116 cells assessed as reduction in cell growth by MTT assay; assay type: functional, cell-based
MCF7 [26] = experiment: Cytotoxicity against human MCF7 cells assessed as reduction in cell growth by MTT assay; assay type: functional, cell-based
[27] = molecular target: T1, Vascular endothelial growth factor receptor 2; experiment: Inhibition of VEGFR-2 (unknown origin)

With `O=C(CSc1nc2ccccc2o1)Nc1ccc(C(=O)Nc2ccc([N+](=O)[O-])cc2)cc1` the IC50 (MCF7 [1]) was 3.43 µM, the IC50 (HepG2 [2]) was 2.43 µM and the IC50 (HCT-116 [3]) was 2.79 µM.
With `COc1nc(C(=O)Nc2nc3cc(F)ccc3[nH]2)ccc1-n1cnc(C)c1` the IC50 (MCF7 [4]) was 8.9 µM and the IC50 (DU-145) was 9.2 µM.
`COc1ccc(-c2nn(-c3ccccc3)cc2/C=C2/S/C(=N\N=C(/C)c3nc4ccccc4[nH]3)N(c3ccc(Cl)cc3)C2=O)cc1` gave an IC50 (HepG2 [5]) of 11 µg/mL (≈ 17.1 µM) and an IC50 (MCF7 [6]) of 5.84 µM.
In the case of `Clc1cccc(Cl)c1CNc1cccc(-c2nc3ccccc3[nH]2)c1`, the IC50 (MCF7 [6]) is reported as 6.3 µM, the IC50 [7] is reported as 0.0067 µM and the IC50 [8] is reported as 0.0069 µM.
`Cc1ccc2oc(SCCC(=O)Nc3ccc(S(=O)(=O)NC(=O)Nc4ccccc4)cc3)nc2c1` gave an IC50 (HepG2 [9]) of 6.58 µM, an IC50 (HCT-116 [10]) of 9.1 µM and an IC50 (MCF7 [11]) of 10.1 µM.
For `Cc1ccc2oc(SCCC(=O)Nc3ccc(S(=O)(=O)NC(=O)NC4CCCCC4)cc3)nc2c1`, the IC50 (HepG2 [9]) was 4.13 µM, the IC50 (HCT-116 [10]) was 6.93 µM and the IC50 (MCF7 [11]) was 8.67 µM.
Molecule `O=C(CCc1nnc2sc(COc3ccccc3)nn12)c1nc2cc([N+](=O)[O-])ccc2[nH]1` has an IC50 (UO-31) of 32.9 µM.
For `COc1cc(C2OC(CCC(=O)c3nc4cc([N+](=O)[O-])ccc4[nH]3)=NN2C(C)=O)cc(OC)c1OC` (stereo unspecified), the IC50 (UO-31) was 19.1 µM, the inhibition at 0.3 µM (SK-MEL-2) was 42.6% and the inhibition at 0.3 µM (NCI-H522) was 48.7%.
Work on `COc1cc(/C=N/NC(=O)c2ccc(-c3nc4cc(C)ccc4[nH]3)cc2)cc(OC)c1OC` yielded a GI (MCF7 [12]) of 84.33 µM.
`Cc1ccc2oc(SCCC(=O)Nc3nnc(-c4ccccc4)s3)nc2c1` gave an IC50 (HepG2 [9]) of 9.45 µM, an IC50 (HCT-116 [10]) of 5.76 µM and an IC50 (MCF7 [11]) of 7.36 µM.
Molecule `COC(=O)COc1ccc(/C=N/NC(=O)COc2ccc(-c3nc4ccccc4s3)cc2OC)cc1OC` has an IC50 (MCF7 [13]) of 21.9 µM and an IC50 [14] of 0.13 µM.
`O=C(CCc1nnc2sc(CCc3ccccc3)nn12)c1nc2cc([N+](=O)[O-])ccc2[nH]1` gave an IC50 (HCT-116 [15]) of 2.19 µM and an IC50 (A549 [16]) of 11 µM.
Work on `COc1ccc(/C=N/N=C(/c2ccccc2)c2ccc3nc(-c4ccc(Cl)cc4)[nH]c3c2)cc1` yielded an IC50 (A549 [17]) of 3.58 µM, an IC50 (NCI-H460) of 1.71 µM and an inhibition [18] of 86.2%.
In the case of `Cc1ccc2oc(SCC(=O)Nc3ccc(C(=O)Nc4cccc(Cl)c4)cc3)nc2c1`, the IC50 (MCF7 [1]) is reported as 15.2 µM and the IC50 (HepG2 [2]) is reported as 10.5 µM.
In the case of `Clc1ccc(/C=N/N=C(/c2ccccc2)c2ccc3nc(-c4ccc(Cl)cc4)[nH]c3c2)cc1`, the IC50 (A549 [17]) is reported as 1.88 µM, the IC50 (NCI-H460) is reported as 0.85 µM and the inhibition [18] is reported as 89.9%.
With `O=C(CCSc1nc2ccccc2o1)Nc1ccc(S(=O)(=O)NC(=O)NC2CCCCC2)cc1` the IC50 [19] was 0.08 µM, the IC50 (HepG2 [9]) was 5.93 µM and the IC50 (HCT-116 [10]) was 7.14 µM. For the same molecule, the IC50 (MCF7 [11]) was 8.93 µM.
With `O=C(CCc1nnc2sc(-c3ccc(Br)cc3)nn12)c1nc2cc([N+](=O)[O-])ccc2[nH]1` the IC50 (HCT-116 [15]) was 9.03 µM and the IC50 (A549 [16]) was 6.17 µM.
`Cn1c(COC(=O)c2c[nH]c3ccccc23)nc2ccccc21` gave an inhibition [20] of 33.9%, an IC50 (HeLa) of 0.27 µM and an IC50 (HT-29) of 0.36 µM. The IC50 at 72 h [21] was 0.26 µM, the IC50 at 72 h [22] was 0.21 µM and the IC50 at 72 h [23] was 0.54 µM.
With `COc1cc(/C=N/NC(=O)c2nnn(Cc3nc4ccccc4[nH]3)c2C)ccc1O` the IC50 (HepG2 [24]) was 10.9 µM, the IC50 (HCT-116 [25]) was 3.34 µM and the IC50 (MCF7 [26]) was 7.11 µM. For the same molecule, the IC50 [27] was 0.229 µM.
`Cn1c(COC(=O)c2c[nH]c3ccc(Br)cc23)nc2ccccc21` showed an inhibition [20] of 28.8%, an IC50 (HeLa) of 0.33 µM and an IC50 (HT-29) of 0.33 µM. It also gave an IC50 at 72 h [21] of 0.32 µM, an IC50 at 72 h [22] of 0.45 µM and an IC50 at 72 h [23] of 0.27 µM.
Work on `O=C(CCSc1nc2ccccc2o1)Nc1nnc(-c2ccccc2)s1` yielded an IC50 (HepG2 [9]) of 9.97 µM, an IC50 (HCT-116 [10]) of 6.99 µM and an IC50 (MCF7 [11]) of 7.89 µM.
